Measured values: ChEMBL document CHEMBL1275522, “Antimicrobial studies with the Pseudomonas aeruginosa two-allele library require caution” (2008)
Values after ≈ are worked out from the molar mass of the structure shown.

Assays:
Type in all cases: functional
Pseudomonas aeruginosa [1] = experiment: Antimicrobial against Pseudomonas aeruginosa 32455 harboring phzS allele by Etest method
Pseudomonas aeruginosa [2] = experiment: Antimicrobial against Pseudomonas aeruginosa 40198 harboring nirJ allele by Etest method
Pseudomonas aeruginosa [3] = experiment: Antimicrobial against Pseudomonas aeruginosa 3894 by Etest method
Pseudomonas aeruginosa [4] = experiment: Antimicrobial against Pseudomonas aeruginosa 1494 harboring phnA allele by Etest method
Pseudomonas aeruginosa [5] = experiment: Antimicrobial against Pseudomonas aeruginosa 8564 harboring pyrX allele by Etest method
Pseudomonas aeruginosa [6] = experiment: Antimicrobial against Pseudomonas aeruginosa 30848 harboring phoU allele by Etest method
Pseudomonas aeruginosa [7] = experiment: Antimicrobial against Pseudomonas aeruginosa 9256 harboring ybhO allele by Etest method
Pseudomonas aeruginosa [8] = experiment: Antimicrobial against Pseudomonas aeruginosa 3465 harboring tsaA allele by Etest method
Pseudomonas aeruginosa [9] = experiment: Antimicrobial against Pseudomonas aeruginosa 312 harboring PBPP allele by Etest method
Pseudomonas aeruginosa [10] = experiment: Antimicrobial against Pseudomonas aeruginosa 33410 harboring phoU allele by Etest method
Pseudomonas aeruginosa [11] = experiment: Antimicrobial against Pseudomonas aeruginosa PAO1 by Etest method
Pseudomonas aeruginosa [12] = experiment: Antimicrobial against Pseudomonas aeruginosa 3434 by Etest method
Pseudomonas aeruginosa [13] = experiment: Antimicrobial against Pseudomonas aeruginosa 8666 by Etest method
Pseudomonas aeruginosa [14] = experiment: Antimicrobial against Pseudomonas aeruginosa 3208 harboring phzM allele by Etest method
Pseudomonas aeruginosa [15] = experiment: Antimicrobial against Pseudomonas aeruginosa 46396 harboring katA allele by Etest method
Pseudomonas aeruginosa [16] = experiment: Antimicrobial against Pseudomonas aeruginosa 1494 harboring phnA allele by broth dilution method
Pseudomonas aeruginosa [17] = experiment: Antimicrobial against Pseudomonas aeruginosa 312 harboring PBPP allele by broth dilution method
Pseudomonas aeruginosa [18] = experiment: Antimicrobial against Pseudomonas aeruginosa 46396 harboring katA allele by broth dilution method
Pseudomonas aeruginosa [19] = experiment: Antimicrobial against Pseudomonas aeruginosa 3434 by broth dilution method
Pseudomonas aeruginosa [20] = experiment: Antimicrobial against Pseudomonas aeruginosa 9256 harboring ybhO allele by broth dilution method
Pseudomonas aeruginosa [21] = experiment: Antimicrobial against Pseudomonas aeruginosa 3208 harboring phzM allele by broth dilution method
Pseudomonas aeruginosa [22] = experiment: Antimicrobial against Pseudomonas aeruginosa 40198 harboring nirJ allele by broth dilution method
Pseudomonas aeruginosa [23] = experiment: Antimicrobial against Pseudomonas aeruginosa 3894 by broth dilution method
Pseudomonas aeruginosa [24] = experiment: Antimicrobial against Pseudomonas aeruginosa 30848 harboring phoU allele by broth dilution method
Pseudomonas aeruginosa [25] = experiment: Antimicrobial against Pseudomonas aeruginosa 8666 by broth dilution method
Pseudomonas aeruginosa [26] = experiment: Antimicrobial against Pseudomonas aeruginosa 33410 harboring phoU allele by broth dilution method
Pseudomonas aeruginosa [27] = experiment: Antimicrobial against Pseudomonas aeruginosa 8564 harboring pyrX allele by broth dilution method
Pseudomonas aeruginosa [28] = experiment: Antimicrobial against Pseudomonas aeruginosa 3465 harboring tsaA allele by broth dilution method
Pseudomonas aeruginosa [29] = experiment: Antimicrobial against Pseudomonas aeruginosa 32455 harboring phzS allele by broth dilution method
Pseudomonas aeruginosa [30] = experiment: Antimicrobial against Pseudomonas aeruginosa PAO1 by broth dilution method

SMILES	MIC (Pseudomonas aeruginosa [1])	MIC (Pseudomonas aeruginosa [2])	MIC (Pseudomonas aeruginosa [3])	MIC (Pseudomonas aeruginosa [4])	MIC (Pseudomonas aeruginosa [5])	MIC (Pseudomonas aeruginosa [16])	MIC (Pseudomonas aeruginosa [17])	MIC (Pseudomonas aeruginosa [18])	MIC (Pseudomonas aeruginosa [19])	MIC (Pseudomonas aeruginosa [20])	MIC (Pseudomonas aeruginosa [21])	MIC (Pseudomonas aeruginosa [22])	MIC (Pseudomonas aeruginosa [23])	MIC (Pseudomonas aeruginosa [24])	MIC (Pseudomonas aeruginosa [25])	MIC (Pseudomonas aeruginosa [26])	MIC (Pseudomonas aeruginosa [27])	MIC (Pseudomonas aeruginosa [28])	MIC (Pseudomonas aeruginosa [29])	MIC (Pseudomonas aeruginosa [30])	further results
CC(C)(O/N=C(\C(=O)N[C@@H]1C(=O)N2C(C(=O)[O-])=C(C[n+]3ccccc3)CS[C@H]12)c1csc(N)n1)C(=O)O [CEFTAZIDIME]	2 µg/mL (≈ 3.66 µM)	1.5 µg/mL (≈ 2.74 µM)	2.5 µg/mL (≈ 4.57 µM)	1.5 µg/mL (≈ 2.74 µM)	1.5 µg/mL (≈ 2.74 µM)	–	–	–	–	–	–	–	–	–	–	–	–	–	–	–	MIC (Pseudomonas aeruginosa [6]): 3 µg/mL (≈ 5.49 µM); MIC (Pseudomonas aeruginosa [7]): 2 µg/mL (≈ 3.66 µM); MIC (Pseudomonas aeruginosa [8]): 2 µg/mL (≈ 3.66 µM); MIC (Pseudomonas aeruginosa [9]): 2 µg/mL (≈ 3.66 µM); MIC (Pseudomonas aeruginosa [10]): 1.5 µg/mL (≈ 2.74 µM); MIC (Pseudomonas aeruginosa [11]): 2 µg/mL (≈ 3.66 µM); MIC (Pseudomonas aeruginosa [12]): 2.5 µg/mL (≈ 4.57 µM); MIC (Pseudomonas aeruginosa [13]): 2 µg/mL (≈ 3.66 µM); MIC (Pseudomonas aeruginosa [14]): 2 µg/mL (≈ 3.66 µM); MIC (Pseudomonas aeruginosa [15]): 2 µg/mL (≈ 3.66 µM)
O=C(N[C@H](CO)[C@H](O)c1ccc([N+](=O)[O-])cc1)C(Cl)Cl [CHLORAMPHENICOL]	–	–	–	–	–	12.5 µg/mL (≈ 38.7 µM)	12.5 µg/mL (≈ 38.7 µM)	12.5 µg/mL (≈ 38.7 µM)	25 µg/mL (≈ 77.4 µM)	12.5 µg/mL (≈ 38.7 µM)	12.5 µg/mL (≈ 38.7 µM)	12.5 µg/mL (≈ 38.7 µM)	12.5 µg/mL (≈ 38.7 µM)	200 µg/mL (≈ 619 µM)	12.5 µg/mL (≈ 38.7 µM)	12.5 µg/mL (≈ 38.7 µM)	12.5 µg/mL (≈ 38.7 µM)	12.5 µg/mL (≈ 38.7 µM)	12.5 µg/mL (≈ 38.7 µM)	800 µg/mL (≈ 2480 µM)	–
O=C(O)c1cn(C2CC2)c2cc(N3CCNCC3)c(F)cc2c1=O [CIPROFLOXACIN]	–	–	–	–	–	0.1 µg/mL (≈ 0.302 µM)	0.1 µg/mL (≈ 0.302 µM)	0.1 µg/mL (≈ 0.302 µM)	0.05 µg/mL (≈ 0.151 µM)	0.1 µg/mL (≈ 0.302 µM)	0.1 µg/mL (≈ 0.302 µM)	0.1 µg/mL (≈ 0.302 µM)	0.05 µg/mL (≈ 0.151 µM)	0.2 µg/mL (≈ 0.604 µM)	0.1 µg/mL (≈ 0.302 µM)	0.05 µg/mL (≈ 0.151 µM)	0.1 µg/mL (≈ 0.302 µM)	0.1 µg/mL (≈ 0.302 µM)	0.1 µg/mL (≈ 0.302 µM)	0.8 µg/mL (≈ 2.41 µM)	–
C[C@@H](O)[C@H]1C(=O)N2C(C(=O)O)=C(S[C@@H]3CN[C@H](C(=O)N(C)C)C3)[C@H](C)[C@H]12 [MEROPENEM]	0.25 µg/mL (≈ 0.652 µM)	0.25 µg/mL (≈ 0.652 µM)	0.19 µg/mL (≈ 0.495 µM)	0.38 µg/mL (≈ 0.991 µM)	0.38 µg/mL (≈ 0.991 µM)	–	–	–	–	–	–	–	–	–	–	–	–	–	–	–	MIC (Pseudomonas aeruginosa [6]): 0.5 µg/mL (≈ 1.3 µM); MIC (Pseudomonas aeruginosa [7]): 0.25 µg/mL (≈ 0.652 µM); MIC (Pseudomonas aeruginosa [8]): 0.25 µg/mL (≈ 0.652 µM); MIC (Pseudomonas aeruginosa [9]): 0.25 µg/mL (≈ 0.652 µM); MIC (Pseudomonas aeruginosa [10]): 0.38 µg/mL (≈ 0.991 µM); MIC (Pseudomonas aeruginosa [11]): 0.38 µg/mL (≈ 0.991 µM); MIC (Pseudomonas aeruginosa [12]): 0.38 µg/mL (≈ 0.991 µM); MIC (Pseudomonas aeruginosa [13]): 0.25 µg/mL (≈ 0.652 µM); MIC (Pseudomonas aeruginosa [14]): 0.38 µg/mL (≈ 0.991 µM); MIC (Pseudomonas aeruginosa [15]): 0.25 µg/mL (≈ 0.652 µM)
CCn1cc(C(=O)O)c(=O)c2cc3c(cc21)OCO3 [OXOLINIC ACID]	–	–	–	–	–	8 µg/mL (≈ 30.6 µM)	8 µg/mL (≈ 30.6 µM)	8 µg/mL (≈ 30.6 µM)	4 µg/mL (≈ 15.3 µM)	8 µg/mL (≈ 30.6 µM)	4 µg/mL (≈ 15.3 µM)	8 µg/mL (≈ 30.6 µM)	8 µg/mL (≈ 30.6 µM)	16 µg/mL (≈ 61.2 µM)	8 µg/mL (≈ 30.6 µM)	4 µg/mL (≈ 15.3 µM)	8 µg/mL (≈ 30.6 µM)	4 µg/mL (≈ 15.3 µM)	4 µg/mL (≈ 15.3 µM)	64 µg/mL (≈ 245 µM)	–
NC[C@H]1O[C@H](O[C@H]2[C@H](O)[C@@H](O[C@H]3O[C@H](CO)[C@@H](O)[C@H](N)[C@H]3O)[C@H](N)C[C@@H]2N)[C@H](N)C[C@@H]1O [TOBRAMYCIN]	–	–	–	–	–	0.4 µg/mL (≈ 0.856 µM)	0.2 µg/mL (≈ 0.428 µM)	0.2 µg/mL (≈ 0.428 µM)	0.4 µg/mL (≈ 0.856 µM)	0.4 µg/mL (≈ 0.856 µM)	0.2 µg/mL (≈ 0.428 µM)	0.4 µg/mL (≈ 0.856 µM)	0.4 µg/mL (≈ 0.856 µM)	0.4 µg/mL (≈ 0.856 µM)	0.2 µg/mL (≈ 0.428 µM)	0.4 µg/mL (≈ 0.856 µM)	0.2 µg/mL (≈ 0.428 µM)	0.2 µg/mL (≈ 0.428 µM)	0.4 µg/mL (≈ 0.856 µM)	0.2 µg/mL (≈ 0.428 µM)	–
